{"source": "paper PMC3441706", "about": "(PLoS ONE, 2012)", "assay_type_in_all_cases": "cell-based, human", "key": {"γH2AX (Ser139)": {"system": "γH2AX (Ser139)", "assay": "Immunofluorescence staining and quantification of γH2AX in HeLa cells", "experimental": "(§1) HCT116 and HeLa cells were seeded on glass cover slips in 6-well plates. 24 hours after plating, HCT116 cells were incubated with 0.15, 0.5 and 1 µM NVX-412 and 1 µM CPT for 24 hours for staining of p-p53. For investigating γH2AX, HeLa cells were incubated with 0.21, 0.5 and 1 µM NVX-412 and 1 µM CPT for 3 or 24 hours. Additionally, cells were allowed to recover for 24 hours in normal growth medium after 24 hours of incubation with NVX-412 or CPT (wash-out experiment). After the respective treatments, cells were washed and fixed with 4% methanol-free formaldehyde (Polysciences Inc. Warrington, PA, USA) for 15 minutes at room temperature and then permeabilized with 0.2% Triton X-100/PBS for 2 minutes at room temperature. After blocking with goat serum (5%) in 1% BSA/0.3% Triton X-100/PBS, the respective primary antibody was added and cells were incubated at 4°C overnight. Antibodies used were: mouse p-p53 (Ser15) (Cell Signaling Technology, Danvers, MA, USA) at 1∶100 dilution and mouse p-H2AX (Ser139) (Millipore, Billerica, MA, USA) at 1∶1000 dilution in 1% BSA/PBS, respectively. Cells were then washed 3 times for 10 minutes with 0.25% BSA/0.1% Triton X-100/PBS and incubated with the Alexa Fluor 488 conjugated secondary anti-mouse antibody (1∶1000 in 0.25% BSA/0.1% Triton X-100/PBS) for 1 hour at room temperature in the dark. Cells were washed 3 times for 10 minutes with 0.05% Tween-20/PBS containing Hoechst 33342 (Sigma Aldrich, Vienna, AUT) and mounted with mounting medium (Fluoprep, bioMérieux, Marcy l'Etoile, FRA). Fluorescence was immediately recorded on a Zeiss LSM700 laser scanning microscope.\nThe common procedure for assessing γH2AX induction is to count γH2AX foci. Since with NVX-412 and the positive control CPT γH2AX activation was that strong, no distinguishable and countable foci were seen. Therefore, the average γH2AX fluorescence intensity per nucleus was determined. To this end, γH2AX intensities within a certain field were measured using Quantity One –4.6.9 (Basic freeware version, Bio-Rad Laboratories, Hercules, CA, USA) and were divided by the number of nuclei in this field."}, "HeLa cells [1]": {"system": "HeLa cells", "assay": "DNA replication rate (BrdU incorporation ELISA)", "settings": "24 hours treatment then 24 hours in normal growth medium", "experimental": "(§2) HeLa and HCT116 cells were plated in black 96-well plates. After cells were allowed to recover for 24 hours NVX-412 or CPT was added in fresh growth medium. After 24 hours of incubation a chemiluminescent BrdU Incorporation ELISA (Roche Applied Science, Penzberg, Germany) was performed with half of the plates according to the manufacturer’s protocol. Cells in the remaining plates were allowed to recover for 24 hours in normal growth medium before DNA replication was measured (wash-out experiment). To check whether a possible decline in DNA replication rate is not simply due to lower cell numbers because of cell death induction, the proportion of viable cells was determined in parallel by a MTT-based cytotoxicity assay according to the manufacturer’s protocol (EZ4U, Biomedica, Vienna, Austria). Colorimetric (at 492 and 620 nm) and chemiluminescent measurements were performed using a FLUOstar OPTIMA (BMG Labtech, Ortenberg, Germany)."}, "HCT116 cells [2]": {"system": "HCT116 cells", "assay": "DNA replication rate (BrdU incorporation ELISA)", "settings": "HCT116, 24 hours treatment then 24 hours in normal growth medium", "experimental": "as §2"}, "p-p53 (Ser15) [3]": {"system": "p-p53 (Ser15)", "assay": "Immunofluorescence staining of p-p53 (Ser15) in HCT116 cells", "settings": "HCT116, 24 hours, 1 µM (positive control)", "experimental": "as §1"}, "p-p53 (Ser15) [4]": {"system": "p-p53 (Ser15)", "assay": "Western Blot for p-p53 (Ser15) in HCT116 cells", "settings": "HCT116, 24 and 48 hours, 1 µM (control)", "experimental": "Treated cells were directly lysed in NP40 cell lysis buffer (Invitrogen, Grand Island, NY, USA) containing protease and phosphatase inhibitors. Protein concentrations were measured colorimetrically (DC Protein Assay, Bio-Rad Laboratories, Hercules, CA, USA). Proteins were separated by SDS - polyacrylamide gel electrophoresis and blotted onto nitrocellulose membranes (Whatman™, Vienna, AUT). Equal loading was checked by Ponceau S (SERVA, Heidelberg, GER) staining. Bound antigen was visualized with the enhanced chemiluminescence detection system (Roche Diagnostics, Indianapolis, IN, USA). These procedures were performed according to the manufacturer’s protocols. Antibodies specific for the following proteins of interest were used: pChk1 (Ser296), p-p53 (Ser15), β-Tubulin and GAPDH were obtained from Cell Signaling Technology (Danvers, MA, USA) at 1∶1000 dilution. Secondary antibodies were peroxidase-tagged goat anti-rabbit or anti-mouse IgGs (Cell Signaling Technology) (1∶2000)."}, "HeLa cells [5]": {"system": "HeLa cells", "assay": "Flow cytometric cell cycle analysis", "settings": "24 hours", "experimental": "(§3) HT-29, HeLa and HCT116 cells were plated in 6-well plates. […] CPT was used at 50 nM and 1 µM. To analyze the cell cycle distribution, cells were collected after 24 hours of incubation and washed with PBS. Cells were fixed in 70% ethanol for at least 2 hours. For analysis, cells were transferred into PBS, incubated with RNAse A (0.04 µg/ml final concentration) for 30 minutes at 37°C, treated with […] propidium iodide for 30 min at 4°C and then analyzed by flow cytometry using BD FACScan (Becton, Dickinson and Company, Franklin Lakes, NJ, USA). The resulting DNA histograms were quantified using ModFit LT (Verity Software House, Topsham, ME, USA)."}, "HCT116 cells [6]": {"system": "HCT116 cells", "assay": "Flow cytometric cell cycle analysis", "settings": "HCT116, 24 hours", "experimental": "as §3"}, "HT-29 cells": {"system": "HT-29 cells", "assay": "Flow cytometric cell cycle analysis", "settings": "HT-29, 24 hours", "experimental": "as §3"}, "[7]": {"system": "HCT116 p53+/+ or p53−/− cells", "assay": "Determination of p53 status dependency", "settings": "HCT116 p53+/+ vs p53−/−, 72 hours, viable cell numbers", "experimental": "(§4) The isogenic colon carcinoma cells lines HCT116 p53+/+ or p53−/− and RKO p53+/+ or p53−/− were cultured in 12-well plates. After a recovery period of 24 hours, NVX-412 or Nutlin-3 was added in fresh growth medium at the indicated concentrations. […] After 24 or 72 hours cell numbers were determined with a Beckman Coulter ViCell XR."}, "[8]": {"system": "RKO p53+/+ or p53−/− cells", "assay": "Determination of p53 status dependency", "settings": "RKO p53+/+ vs p53−/−, 72 hours, viable cell numbers", "experimental": "as §4"}}, "data": [{"smiles": "CC[C@@]1(O)C(=O)OCc2c1cc1n(c2=O)Cc2cc3ccccc3nc2-1", "note": "[CPT, (S)-(+)-Camptothecin, reference compound]", "values": [{"measurement": "γH2AX induction", "setting": "γH2AX (Ser139); 3 hours", "result": "Only a slight induction of γH2AX"}, {"measurement": "γH2AX levels after recovery (wash-out)", "setting": "γH2AX (Ser139); 24 hours treatment then 24 hours without drug", "result": "not reversible"}, {"measurement": "DNA replication rate after recovery (wash-out)", "setting": "HeLa cells [1]", "result": "a recovery was only observed at the lowest concentration tested"}, {"measurement": "DNA replication rate after recovery (wash-out)", "setting": "HCT116 cells [2]", "result": "a recovery was only observed at the lowest concentration tested"}, {"measurement": "p-p53 (Ser15) immunofluorescence staining", "setting": "p-p53 (Ser15) [3]", "result": "positive for nuclear staining of p-p53 (Ser15)"}, {"measurement": "Phosphorylated p53 (Western Blot)", "setting": "p-p53 (Ser15) [4]", "result": "strong induction"}, {"measurement": "Cell cycle distribution", "setting": "HeLa cells [5]; 50 nM", "result": "G2/M arrest"}, {"measurement": "Cell cycle distribution", "setting": "HeLa cells [5]; 1 µM", "result": "S-phase arrest"}, {"measurement": "Cell cycle distribution", "setting": "HCT116 cells [6]; 50 nM", "result": "G2/M-phase arrest"}, {"measurement": "Cell cycle distribution", "setting": "HCT116 cells [6]; 1 µM", "result": "most of the cells were already dead"}, {"measurement": "Cell cycle distribution", "setting": "HT-29 cells; 50 nM", "result": "G2/M arrest"}, {"measurement": "Cell cycle distribution", "setting": "HT-29 cells; 1 µM", "result": "S-phase arrest"}]}, {"smiles": "COc1ccc(C2=N[C@@H](c3ccc(Cl)cc3)[C@@H](c3ccc(Cl)cc3)N2C(=O)N2CCNC(=O)C2)c(OC(C)C)c1", "note": "[Nutlin-3, reference compound]", "values": [{"measurement": "p53 status dependency of sensitivity", "setting": "[7]", "result": "p53+/+ cells being much more sensitive than p53−/− cells"}, {"measurement": "p53 status dependency of sensitivity", "setting": "[8]", "result": "p53+/+ cells being much more sensitive than p53−/− cells"}]}]}
